Source: patent publication US8901035B2, “Herbicidal compositions comprising 4-amino-3-chloro-5-fluoro-6-(4-chloro-2-fluoro-3-methoxyphenyl) pyridine-2-carboxylic acid or a derivative thereof and cellulose biosynthesis inhibitor herbicides” (Dow AgroSciences LLC, priority 2012, dated 2014)

How the values were obtained:
[1] = system: Setaria faberi Herrm. (SETFA); test: Pre-emergence soil-applied herbicidal mixtures for weed control (greenhouse); type: in vivo
[2] = system: Xanthium strumarium L. (XANST); test: as above; type: in vivo
[3] = Compound A Benzyl Ester 16 g ae/ha alone
[4] = Compound A Benzyl Ester 32 g ae/ha alone

COc1c(Cl)ccc(-c2nc(C(=O)OCc3ccccc3)c(Cl)c(N)c2F)c1F [Compound A Benzyl Ester, benzyl ester of 4-amino-3-chloro-5-fluoro-6-(4-chloro-2-fluoro-3-methoxy-phenyl)pyridine-2-carboxylic acid]
Visual Weed Control (%) - 27 DAA SETFA Obs [1, 3]: 8% | Visual Weed Control (%) - 27 DAA SETFA Obs [1, 4]: 15% | Visual Weed Control (%) - 28 DAA XANST Obs [2, 3]: 0% | Visual Weed Control (%) - 28 DAA XANST Obs [2, 4]: 5%
